Source: US20240383872A1, “NOVEL PYRIDINE AND PYRAZINE COMPOUNDS AS INHIBITORS OF CANNABINOID RECEPTOR 2” (HOFFMANN-LA ROCHE INC., priority 2018, published 2024)

Molecular target: human CB2 receptor (CNR2) (Homo sapiens (Human), UniProt P34972)
Assay: Radioligand binding assay, human CB2
Settings: HEK cell membranes expressing human CNR2, [3H]-CP-55,940 radioligand
Procedure: The affinity of the compounds of the invention for cannabinoid CB1 receptors was determined using recommended amounts of membrane preparations (PerkinElmer) of human embryonic kidney (HEK) cells expressing the human CNRI or CNR2 receptors in conjunction with 1.5 or 2.6 nM [3H]-CP-55,940 (Perkin Elmer) as radioligand, respectively. Binding was performed in binding buffer (50 mM Tris, 5 mM MgCl2, 2.5 mM EDTA, and 0.5% (wt/vol) fatty acid free BSA, pH 7.4 for CB1 receptor and 50 mM Tris, 5 mM MgCl2, 2.5 mM EGTA, and 0.1% (wt/vol) fatty acid free BSA, pH 7.4 for CB2 receptor) in a total volume of 0.2 ml for 1 h at 30° C. shaking. The reaction was terminated by rapid filtration through microfiltration plates coated with 0.5% polyethylenimine (UniFilter GF/B filter plate; Packard). Bound radioactivity was analyzed for Ki using nonlinear regression analysis (Activity Base, ID Business Solution, Limited), with the Kd values for [3H]CP55,940 determined from saturation experiments. The compounds of formula (I) show an excellent affinity for the CB2 receptor.
The compounds according to formula (I) have an activity in the above assay (Ki) between 0.5 nM and 10 μM. Particular compounds of formula (I) have an activity in the above assay (Ki) between 0.5 nM and 3 μM. Other particular compounds of formula (I) have an activity in the above assay (Ki) between 0.5 nM and 100 nM.

Sequence of human CB2 receptor (CNR2) (P34972 whole entry): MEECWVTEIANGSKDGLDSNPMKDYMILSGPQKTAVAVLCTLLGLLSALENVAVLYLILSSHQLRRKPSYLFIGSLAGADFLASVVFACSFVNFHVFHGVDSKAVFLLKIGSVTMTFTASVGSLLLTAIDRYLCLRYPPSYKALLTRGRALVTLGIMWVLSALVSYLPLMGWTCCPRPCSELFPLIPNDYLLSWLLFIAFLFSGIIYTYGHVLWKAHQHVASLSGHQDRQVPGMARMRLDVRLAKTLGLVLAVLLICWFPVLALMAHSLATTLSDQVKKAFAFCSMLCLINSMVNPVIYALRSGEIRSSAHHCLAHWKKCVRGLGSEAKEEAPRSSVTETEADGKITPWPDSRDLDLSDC

COC1CN(c2ccc(C(=O)N[C@H](COCF)C(C)C)nc2OCC2CC2)C1 [Example 29, 6-(Cyclopropylmethoxy)-N-[(2S)-1-(fluoromethoxy)-3-methylbutan-2-yl]-5-(3-methoxyazetidin-1-yl) pyridine-2-carboxamide] showed a Ki of 269 nM.

CC(C)[C@@H](COCCF)NC(=O)c1ccc(N2CCCC2)c(OCC2CC2)n1 [Example 20, 6-(Cyclopropylmethoxy)-N-[(2S)-1-(2-fluoroethoxy)-3-methylbutan-2-yl]-5-(pyrrolidin-1-yl)pyridine-2-carboxamide] showed a Ki of 60 nM.

In the case of CCC(CC)(COCCF)NC(=O)c1ccc(N2CC(OC)C2)c(OCC2CC2)n1 [Example 35, 6-(Cyclopropylmethoxy)-N-{3-[(2-fluoroethoxy)methyl]pentan-3-yl}-5-(3-methoxyazetidin-1-yl) pyridine-2-carboxamide], the Ki is reported as 62 nM.

Work on CCC(CC)(NC(=O)c1ccc(N2CCCC2)c(OCC2CC2)n1)C(=O)OCCF [Example 9, 2-Fluoroethyl 2-{[6-(cyclopropylmethoxy)-5-(pyrrolidin-1-yl)pyridine-2-carbonyl]amino}-2-ethylbutanoate] yielded a Ki of 3 nM.

CC(C)C[C@H](NC(=O)c1ccc(N2CCCC2)c(OCC2CC2)n1)C(=O)OCCCF [Example 15, 3-Fluoropropyl N-[6-(cyclopropylmethoxy)-5-(pyrrolidin-1-yl)pyridine-2-carbonyl]-L-leucinate] gave a Ki of 40 nM.

With CCC(CC)(NC(=O)c1ccc(N2CCCC2)c(OCC2CC2)n1)C(=O)OCF [Example 8, 3- Fluoromethyl 2-{[6-(cyclopropylmethoxy)-5-(pyrrolidin-1-yl)pyridine-2-carbonyl]amino}-2-ethylbutanoate] the Ki was 2 nM.

Molecule CCC(CC)(NC(=O)c1ccc(N2CC(F)(F)C2)c(OCC2CC2)n1)C(=O)OCCCF [Example 6, 3-Fluoropropyl 2-{[6-(cyclopropylmethoxy)-5-(3,3-difluoroazetidin-1-yl)pyridine-2-carbonyl]amino}-2-ethylbutanoate] has a Ki of 19 nM.

Work on CCC(CC)(NC(=O)c1ccc(N2CC(OC)C2)c(OCC2CC2)n1)C(=O)OCCF [Example 2, 2-Fluoroethyl 2-{[6-(cyclopropylmethoxy)-5-(3-methoxyazetidin-1-yl)pyridine-2-carbonyl]amino}-2-ethylbutanoate] yielded a Ki of 2 nM.

For COC1CN(c2ccc(C(=O)N[C@@H](CC(C)C)C(=O)OCF)nc2OCC2CC2)C1 [Example 10, Fluoromethyl N-[6-(cyclopropylmethoxy)-5-(3-methoxyazetidin-1-yl)pyridine-2-carbonyl]-L-leucinate], the Ki was 336 nM.

Work on COC1CN(c2ccc(C(=O)N[C@@H](CC(C)C)C(=O)OCCCF)nc2OCC2CC2)C1 [Example 12, 3-Fluoropropyl N-[6-(cyclopropylmethoxy)-5-(3-methoxyazetidin-1-yl)pyridine-2-carbonyl]-L-leucinate] yielded a Ki of 46 nM.

CCC(CC)(COCF)NC(=O)c1ccc(N2CC(OC)C2)c(OCC2CC2)n1 [Example 34, 6-(Cyclopropylmethoxy)-N-{3-[(fluoromethoxy)methyl]pentan-3-yl}-5-(3-methoxyazetidin-1-yl) pyridine-2-carboxamide] gave a Ki of 33 nM.

Molecule COC1CN(c2ccc(C(=O)N[C@H](COCCF)C(C)C)nc2OCC2CC2)C1 [Example 30, 6-(Cyclopropylmethoxy)-N-[(2S)-1-(2-fluoroethoxy)-3-methylbutan-2-yl]-5-(3-methoxyazetidin-1-yl) pyridine-2-carboxamide] has a Ki of 165 nM.

For COC1CN(c2ccc(C(=O)N[C@H](COCCCF)CC(C)C)nc2OCC2CC2)C1 [Example 28, 6-(Cyclopropylmethoxy)-N-[(2S)-1-(3-fluoropropoxy)-4-methylpentan-2-yl]-5-(3-methoxyazetidin-1-yl) pyridine-2-carboxamide], the Ki was 31 nM.

In the case of C[C@@H](COCCF)NC(=O)c1ccc(N2CCCC2)c(OCC2CC2)n1 [Example 23, 6-(Cyclopropylmethoxy)-N-[(2S)-1-(2-fluoroethoxy)propan-2-yl]-5-(pyrrolidin-1-yl)pyridine-2-carboxamide], the Ki is reported as 490 nM.

COC1CN(c2ccc(C(=O)N[C@@H](CC(C)C)C(=O)OCCF)nc2OCC2CC2)C1 [Example 11, 2-Fluoroethyl N-[6-(cyclopropylmethoxy)-5-(3-methoxyazetidin-1-yl)pyridine-2-carbonyl]-L-leucinate] was tested, and the Ki was 15 nM.

For CC(C)C[C@H](NC(=O)c1ccc(N2CCCC2)c(OCC2CC2)n1)C(=O)OCF [Example 13, Fluoromethyl N-[6-(cyclopropylmethoxy)-5-(pyrrolidin-1-yl)pyridine-2-carbonyl]-L-leucinate], the Ki was 63 nM.

CCC(CC)(COCCCF)NC(=O)c1ccc(N2CC(OC)C2)c(OCC2CC2)n1 [Example 36, 6-(Cyclopropylmethoxy)-N-{3-[(3-fluoropropoxy)methyl]pentan-3-yl}-5-(3-methoxyazetidin-1-yl)pyridine-2-carboxamide] showed a Ki of 68 nM.

CC(C)C[C@H](COCCF)NC(=O)c1ccc(N2CCCC2)c(OCC2CC2)n1 [Example 37, 6-(Cyclopropylmethoxy)-N-[(2R)-1-(2-fluoroethoxy)-4-methylpentan-2-yl]-5-(pyrrolidin-1-yl)pyridine-2-carboxamide] showed a Ki of 288 nM.

In the case of CC(C)C[C@@H](COCF)NC(=O)c1ccc(N2CCCC2)c(OCC2CC2)n1 [Example 16, 6-(Cyclopropylmethoxy)-N-[(2S)-1-(fluoromethoxy)-4-methylpentan-2-yl]-5-(pyrrolidin-1-yl)pyridine-2-carboxamide], the Ki is reported as 8 nM.

Molecule CC(C)C[C@@H](COCCF)NC(=O)c1ccc(N2CCCC2)c(OCC2CC2)n1 [Example 17, 6-(Cyclopropylmethoxy)-N-[(2S)-1-(2-fluoroethoxy)-4-methylpentan-2-yl]-5-(pyrrolidin-1-yl)pyridine-2-carboxamide] has a Ki of 10 nM.

COC1CN(c2ccc(C(=O)N[C@@H](COCCF)CC(C)C)nc2OCC2CC2)C1 [Example 38, 6-(Cyclopropylmethoxy)-N-[(2R)-1-(2-fluoroethoxy)-4-methylpentan-2-yl]-5-(3-methoxyazetidin-1-yl) pyridine-2-carboxamide] was tested, and the Ki was 1300 nM.

CC(C)C[C@@H](COCCF)NC(=O)c1ccc(N2CC(F)(F)C2)c(OCC2CC2)n1 [Example 26, 6-(Cyclopropylmethoxy)-5-(3,3-difluoroazetidin-1-yl)-N-[(2S)-1-(2-fluoroethoxy)-4-methylpentan-2-yl]pyridine-2-carboxamide] showed a Ki of 24 nM.

In the case of COC1CN(c2ccc(C(=O)N[C@H](COCCF)CC(C)C)nc2OCC2CC2)C1 [Example 27, 6-(Cyclopropylmethoxy)-N-[(2S)-1-(2-fluoroethoxy)-4-methylpentan-2-yl]-5-(3-methoxyazetidin-1-yl) pyridine-2-carboxamide], the Ki is reported as 18 nM.

Molecule CC(C)[C@@H](COCCCF)NC(=O)c1ccc(N2CCCC2)c(OCC2CC2)n1 [Example 21, 6-(Cyclopropylmethoxy)-N-[(2S)-1-(3-fluoropropoxy)-3-methylbutan-2-yl]-5-(pyrrolidin-1-yl)pyridine-2-carboxamide] has a Ki of 156 nM.

With CC(C)C[C@@H](COCCCF)NC(=O)c1ccc(N2CCCC2)c(OCC2CC2)n1 [Example 18, 6-(Cyclopropylmethoxy)-N-[(2S)-1-(3-fluoropropoxy)-4-methylpentan-2-yl]-5-(pyrrolidin-1-yl) pyridine-2-carboxamide] the Ki was 40 nM.

CCC(CC)(NC(=O)c1ccc(N2CC(C)(F)C2)c(OCC2CC2)n1)C(=O)NCCCF [Example 39, 6-(Cyclopropylmethoxy)-5-(3-fluoro-3-methylazetidin-1-yl)-N-(3-(3-fluoropropylcarbamoyl)pentan-3-yl) picolinamide] was tested, and the Ki was 524 nM.

COC1CN(c2ccc(C(=O)N[C@@H](C)COCCCF)nc2OCC2CC2)C1 [Example 33, 6-(Cyclopropylmethoxy)-N-[(2S)-1-(3-fluoropropoxy)propan-2-yl]-5-(3-methoxyazetidin-1-yl)pyridine-2-carboxamide] showed a Ki of 2810 nM.

COC1CN(c2ccc(C(=O)N[C@H](COCCCF)C(C)C)nc2OCC2CC2)C1 [Example 31, 6-(Cyclopropylmethoxy)-N-[(2S)-1-(3-fluoropropoxy)-3-methylbutan-2-yl]-5-(3-methoxyazetidin-1-yl) pyridine-2-carboxamide] showed a Ki of 247 nM.

CCC(CC)(NC(=O)c1ccc(N2CC(F)(F)C2)c(OCC2CC2)n1)C(=O)OCCF [Example 5, 2-Fluoroethyl 2-{[6-(cyclopropylmethoxy)-5-(3,3-difluoroazetidin-1-yl)pyridine-2-carbonyl]amino}-2-ethylbutanoate] showed a Ki of 7 nM.

CC(C)C[C@H](NC(=O)c1ccc(N2CCCC2)c(OCC2CC2)n1)C(=O)OCCF [Example 14, 2-Fluoroethyl N-[6-(cyclopropylmethoxy)-5-(pyrrolidin-1-yl)pyridine-2-carbonyl]-L-leucinate] was tested, and the Ki was 15 nM.

CCC(CC)(NC(=O)c1ccc(N2CCCC2)c(OCC2CC2)n1)C(=O)OCCCF [Example 7, 3-Fluoropropyl 2-{[6-(cyclopropylmethoxy)-5-(pyrrolidin-1-yl)pyridine-2-carbonyl]amino}-2-ethylbutanoate] was tested, and the Ki was 5 nM.

CC(C)[C@@H](COCF)NC(=O)c1ccc(N2CCCC2)c(OCC2CC2)n1 [Example 19, 6-(Cylopropylmethoxy)-N-[(2S)-1-(fluoromethoxy)-3-methylbutan-2-yl]-5-(pyrrolidin-1-yl)pyridine-2-carboxamide] was tested, and the Ki was 70 nM.
